Experimental data as given in patent US11634488B2, “Treatment of B cell malignancies using afucosylated pro-apoptotic anti-CD19 antibodies in combination with anti CD20 antibodies or chemotherapeutics” (INTERNATIONAL—DRUG—DEVELOPMENT—BIOTECH, priority 2017, dated 2023).

Tested on: Human follicular cell line RL
Assay: CDX model for FL: RL cells subcutaneously in SCID mice
Assay type: in vivo
Settings: RL xenograft in SCID mice
Procedure: Human follicular cell line RL was subcutaneously injected in SCID mice, with a concentration of 5.10^6 cells per injection (200 μL). Mice were randomized when the tumors reached a mean volume of about 100 mm^3 for the 9 groups (total 45 mice). […] The endpoint was defined by animal ethics as a tumor diameter of >18 mm, significant weight loss or alteration of animal well-being. In order to assess the effectiveness of the compounds on tumorigenesis, tumor volume was measured two times a week. The sizes of the primary tumors were measured using calipers and the tumor volume (TV) was extrapolated to a sphere using the formula TV=4/3 […]×r^3, by calculating the mean radius from the two measurements. The median and standard deviation were also calculated for each group. Median is preferred to mean in order to exclude the extreme values. MAb treatment was administered by intraperitoneal injection twice a week during three weeks at 30, 10 or 1 mg/kg doses. The product was prepared in accordance with the sponsor's guidelines, i.e. diluted in PBS. Mice were sacrificed when the tumors reached a maximum volume of 1600 mm^3. The endpoints were defined by […] as a tumor diameter of >18 mm or weight loss of >10% of body weight, or when the tumors are dangerous for mice (necrosis). Statistical analysis was performed with GraphPad Prism software. GraphPad Prism combined scientific graphing, comprehensive curve fitting, understandable statistics, and data organization. The t-test (two-tailed test) was performed on the tumor volume values (mm^3) measured on the day of sacrifice.

[1] = Day 55, 1 mg/kg each MAb, percentage of mice

rituximab
mice in complete remission (1 mg/kg, day 45): 33% | Complete Remission [1]: 33 | Tumor progression [1]: 67
